Test results as given in the supplement of paper PMC12463676, “Small-molecule dissolution of stress granules by redox modulation benefits ALS models” (Nature Chemical Biology, 2025).

Key:
potassium arsenate = compound: O=[As]([O-])(O)O.[K+] [potassium arsenate]; test: thermal stability z-score vs DMSO; higher = more thermally stabilized by treatment; conditions: HeLa; arsenate concentration 1 mM
Procedure: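 Cellular thermal proteome profiling in HeLa cells treated with 1 mM arsenate for 1 h (DMSO pretreatment), heated to ten temperatures (37-66.3 °C). Soluble protein was quantified by TMT mass spectrometry relative to DMSO controls; the thermal stability score was transformed to a z-score; mean of n = 3 experiments.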

lipoamide = compound: NC(=O)CCCCC1CCSS1 [lipoamide]; test: as above; conditions: HeLa, lipoamide concentration 100 µM
Procedure: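 Cellular thermal proteome profiling in HeLa cells. Cells were treated with 100 µM lipoamide for 1 h, with or without 1 mM arsenate for a further 1 h, then heated to ten temperatures (37-66.3 °C), and soluble protein was quantified by TMT mass spectrometry relative to 0.1% DMSO controls. The thermal stability score (sum of log2 fold changes minus the abundance score) was transformed to a z-score; mean of n = 3 experiments.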

[1] = arsenate co-treatment: 1 mM arsenate 1 h
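Note: each temperature applied for 3 min, abundance score taken as mean log2 fold change at the two lowest temperatures, z-score obtained by mean subtraction and division by SD.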

Sequence of UniProt Q8ND56 (Q8ND56 whole entry): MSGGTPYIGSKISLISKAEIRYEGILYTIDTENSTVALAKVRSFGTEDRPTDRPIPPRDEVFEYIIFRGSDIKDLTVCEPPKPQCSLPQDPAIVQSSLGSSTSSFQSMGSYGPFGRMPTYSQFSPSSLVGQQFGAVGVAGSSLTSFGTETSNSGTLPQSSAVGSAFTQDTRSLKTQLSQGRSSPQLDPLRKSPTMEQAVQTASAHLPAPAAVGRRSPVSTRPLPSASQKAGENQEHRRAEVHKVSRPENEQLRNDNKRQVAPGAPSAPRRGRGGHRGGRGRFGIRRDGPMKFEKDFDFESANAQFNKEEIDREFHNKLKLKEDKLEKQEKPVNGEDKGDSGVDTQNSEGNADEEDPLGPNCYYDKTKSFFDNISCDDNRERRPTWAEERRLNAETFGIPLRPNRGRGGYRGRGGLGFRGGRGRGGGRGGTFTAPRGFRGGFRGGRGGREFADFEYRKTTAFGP
Sequence of UniProt Q8WZA0 (Q8WZA0 whole entry): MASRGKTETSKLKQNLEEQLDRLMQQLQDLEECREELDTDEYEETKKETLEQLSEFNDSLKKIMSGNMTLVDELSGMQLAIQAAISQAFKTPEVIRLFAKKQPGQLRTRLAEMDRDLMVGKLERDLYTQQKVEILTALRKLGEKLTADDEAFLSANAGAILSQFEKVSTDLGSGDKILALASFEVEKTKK
Sequence of UniProt Q9BS40 (Q9BS40 whole entry): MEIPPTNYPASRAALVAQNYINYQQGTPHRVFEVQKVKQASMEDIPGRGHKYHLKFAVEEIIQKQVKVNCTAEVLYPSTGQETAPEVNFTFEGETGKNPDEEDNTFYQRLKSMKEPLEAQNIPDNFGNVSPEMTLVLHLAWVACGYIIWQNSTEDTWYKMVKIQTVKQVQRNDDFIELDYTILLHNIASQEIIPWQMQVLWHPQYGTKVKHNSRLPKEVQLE
Sequence of UniProt Q9Y4Y9 (Q9Y4Y9 whole entry): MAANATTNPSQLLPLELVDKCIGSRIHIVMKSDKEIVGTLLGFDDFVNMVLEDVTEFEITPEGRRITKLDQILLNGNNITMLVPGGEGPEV
Sequence of UniProt Q86V48 (Q86V48 whole entry): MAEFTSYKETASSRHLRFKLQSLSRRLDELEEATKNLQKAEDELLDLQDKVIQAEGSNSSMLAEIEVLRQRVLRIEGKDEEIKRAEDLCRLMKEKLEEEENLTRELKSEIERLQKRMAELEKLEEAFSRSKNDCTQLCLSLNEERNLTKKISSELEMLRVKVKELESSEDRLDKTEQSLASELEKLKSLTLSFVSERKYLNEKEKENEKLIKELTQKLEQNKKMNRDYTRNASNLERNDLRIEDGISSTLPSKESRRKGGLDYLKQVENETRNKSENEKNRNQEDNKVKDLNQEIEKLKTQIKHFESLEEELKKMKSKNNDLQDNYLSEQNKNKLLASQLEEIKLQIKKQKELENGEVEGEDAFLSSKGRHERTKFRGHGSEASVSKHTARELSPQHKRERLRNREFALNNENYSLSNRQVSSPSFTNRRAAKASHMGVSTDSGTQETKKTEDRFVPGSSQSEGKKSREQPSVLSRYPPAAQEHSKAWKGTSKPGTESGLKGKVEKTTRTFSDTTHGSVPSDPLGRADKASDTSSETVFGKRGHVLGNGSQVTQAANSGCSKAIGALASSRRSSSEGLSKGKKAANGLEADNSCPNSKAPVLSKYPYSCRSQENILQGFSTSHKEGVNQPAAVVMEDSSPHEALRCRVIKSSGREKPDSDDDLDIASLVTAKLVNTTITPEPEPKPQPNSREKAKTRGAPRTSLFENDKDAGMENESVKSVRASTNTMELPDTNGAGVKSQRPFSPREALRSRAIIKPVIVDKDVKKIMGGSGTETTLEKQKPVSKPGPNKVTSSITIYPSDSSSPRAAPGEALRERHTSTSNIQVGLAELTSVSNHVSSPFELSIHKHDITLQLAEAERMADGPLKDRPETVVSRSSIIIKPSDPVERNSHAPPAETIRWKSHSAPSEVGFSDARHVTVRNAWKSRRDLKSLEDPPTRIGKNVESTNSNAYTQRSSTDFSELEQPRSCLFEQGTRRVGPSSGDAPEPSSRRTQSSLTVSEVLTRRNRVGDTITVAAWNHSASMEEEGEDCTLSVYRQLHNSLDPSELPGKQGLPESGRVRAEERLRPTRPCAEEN
Sequence of UniProt O15116 (O15116 whole entry): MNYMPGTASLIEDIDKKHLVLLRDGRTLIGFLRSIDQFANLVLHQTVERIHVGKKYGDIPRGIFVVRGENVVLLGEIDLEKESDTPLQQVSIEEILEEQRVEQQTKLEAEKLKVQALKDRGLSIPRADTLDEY
Sequence of UniProt O95232 (O95232 whole entry): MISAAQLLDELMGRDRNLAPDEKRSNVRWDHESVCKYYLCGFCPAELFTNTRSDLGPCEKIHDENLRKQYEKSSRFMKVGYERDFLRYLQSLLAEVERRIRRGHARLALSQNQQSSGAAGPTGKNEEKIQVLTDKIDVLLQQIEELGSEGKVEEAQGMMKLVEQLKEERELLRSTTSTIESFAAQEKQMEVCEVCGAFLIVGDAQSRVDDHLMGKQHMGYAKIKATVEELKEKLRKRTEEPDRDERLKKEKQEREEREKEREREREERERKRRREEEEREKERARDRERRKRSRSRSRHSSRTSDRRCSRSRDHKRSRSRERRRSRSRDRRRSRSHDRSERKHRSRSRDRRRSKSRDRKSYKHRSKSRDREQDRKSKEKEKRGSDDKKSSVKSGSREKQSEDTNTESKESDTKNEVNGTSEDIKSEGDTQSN
Sequence of UniProt Q9NX58 (Q9NX58 whole entry): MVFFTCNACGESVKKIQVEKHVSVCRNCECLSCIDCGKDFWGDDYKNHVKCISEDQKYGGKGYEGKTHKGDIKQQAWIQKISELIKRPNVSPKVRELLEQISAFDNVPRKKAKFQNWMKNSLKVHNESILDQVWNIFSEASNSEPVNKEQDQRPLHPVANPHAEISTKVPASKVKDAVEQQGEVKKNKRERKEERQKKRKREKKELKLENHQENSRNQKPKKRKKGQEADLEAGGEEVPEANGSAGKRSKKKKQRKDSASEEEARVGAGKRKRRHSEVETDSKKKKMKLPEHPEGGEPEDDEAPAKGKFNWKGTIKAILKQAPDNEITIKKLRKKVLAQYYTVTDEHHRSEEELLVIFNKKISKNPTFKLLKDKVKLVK
Sequence of UniProt Q9Y333 (Q9Y333 whole entry): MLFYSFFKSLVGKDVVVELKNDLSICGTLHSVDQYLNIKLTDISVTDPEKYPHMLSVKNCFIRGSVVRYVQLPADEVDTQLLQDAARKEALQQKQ
Sequence of UniProt Q9NQ48 (Q9NQ48 whole entry): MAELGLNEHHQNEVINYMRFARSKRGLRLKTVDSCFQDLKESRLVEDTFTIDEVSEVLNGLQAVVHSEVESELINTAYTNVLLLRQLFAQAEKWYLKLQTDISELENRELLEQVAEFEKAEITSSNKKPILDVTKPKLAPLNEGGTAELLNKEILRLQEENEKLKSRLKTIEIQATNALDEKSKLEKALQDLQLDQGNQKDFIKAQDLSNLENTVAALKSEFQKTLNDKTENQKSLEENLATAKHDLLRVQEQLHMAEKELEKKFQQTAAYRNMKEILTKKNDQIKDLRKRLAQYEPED
Sequence of UniProt P07948 (P07948 whole entry, looked up): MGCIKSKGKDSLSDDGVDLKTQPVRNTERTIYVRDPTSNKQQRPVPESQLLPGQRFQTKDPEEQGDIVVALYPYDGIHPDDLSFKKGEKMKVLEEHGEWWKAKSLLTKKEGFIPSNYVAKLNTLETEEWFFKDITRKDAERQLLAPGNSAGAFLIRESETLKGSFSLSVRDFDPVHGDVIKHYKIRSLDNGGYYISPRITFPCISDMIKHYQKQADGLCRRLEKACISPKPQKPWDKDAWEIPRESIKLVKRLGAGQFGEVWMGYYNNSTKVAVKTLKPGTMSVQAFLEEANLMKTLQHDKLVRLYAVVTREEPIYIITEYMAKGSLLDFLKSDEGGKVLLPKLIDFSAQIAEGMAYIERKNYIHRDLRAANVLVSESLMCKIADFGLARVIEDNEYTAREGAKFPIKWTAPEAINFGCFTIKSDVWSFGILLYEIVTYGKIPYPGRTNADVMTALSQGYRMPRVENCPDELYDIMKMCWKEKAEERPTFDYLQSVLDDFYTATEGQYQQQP
Sequence of UniProt Q5U5X0 (Q5U5X0 whole entry): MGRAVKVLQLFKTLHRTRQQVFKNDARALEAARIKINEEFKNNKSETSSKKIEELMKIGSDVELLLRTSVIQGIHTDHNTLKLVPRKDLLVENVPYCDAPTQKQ
Sequence of UniProt Q9UK45 (Q9UK45 whole entry): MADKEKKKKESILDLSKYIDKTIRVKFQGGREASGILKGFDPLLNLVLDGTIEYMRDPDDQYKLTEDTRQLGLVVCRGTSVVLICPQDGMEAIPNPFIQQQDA
Sequence of UniProt Q96GA3 (Q96GA3 whole entry): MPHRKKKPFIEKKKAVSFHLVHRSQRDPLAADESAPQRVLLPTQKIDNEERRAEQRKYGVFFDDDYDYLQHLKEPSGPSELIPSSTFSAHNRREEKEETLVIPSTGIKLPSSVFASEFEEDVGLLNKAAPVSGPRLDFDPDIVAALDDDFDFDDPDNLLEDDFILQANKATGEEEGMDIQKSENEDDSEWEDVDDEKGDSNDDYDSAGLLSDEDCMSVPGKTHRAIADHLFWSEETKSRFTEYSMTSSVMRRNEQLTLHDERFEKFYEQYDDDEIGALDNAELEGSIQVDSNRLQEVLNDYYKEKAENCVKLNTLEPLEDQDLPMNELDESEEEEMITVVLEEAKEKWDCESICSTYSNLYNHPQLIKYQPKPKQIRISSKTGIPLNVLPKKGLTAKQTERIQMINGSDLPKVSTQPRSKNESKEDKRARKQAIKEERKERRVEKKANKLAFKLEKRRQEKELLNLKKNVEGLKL
Sequence of UniProt Q17RY6 (Q17RY6 whole entry): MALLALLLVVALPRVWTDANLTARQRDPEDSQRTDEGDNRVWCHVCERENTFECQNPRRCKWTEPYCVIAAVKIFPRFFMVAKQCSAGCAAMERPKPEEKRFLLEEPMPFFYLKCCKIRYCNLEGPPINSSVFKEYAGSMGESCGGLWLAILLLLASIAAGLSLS
Sequence of UniProt P62310 (P62310 whole entry): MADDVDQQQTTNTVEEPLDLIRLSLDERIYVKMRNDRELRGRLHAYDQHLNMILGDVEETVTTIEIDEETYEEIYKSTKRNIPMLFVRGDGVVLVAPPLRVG

Row | Target | thermal stability z-score (potassium arsenate) | thermal stability z-score (lipoamide; [1]) | thermal stability z-score (lipoamide; arsenate co-treatment: none)
1 | LRWD1 (UniProt Q9UFC0) | -0.324 | -0.0805 | -0.0419
2 | LSG1 (UniProt Q9H089) | 3.55 | -0.18 | 0.17
3 | LSM1 (UniProt O15116) | 0.83 | 1.6 | 2.05
4 | LSM2 (UniProt Q9Y333) | -0.136 | 0.00908 | 0.0523
5 | LSM3 (UniProt P62310) | -0.624 | 0.229 | -0.327
6 | LSM4 (UniProt Q9Y4Z0) | 0.216 | 0.426 | 0.265
7 | LSM5 (UniProt Q9Y4Y9) | -1.23 | -0.69 | 0.0925
8 | LSM6 (UniProt P62312) | -0.309 | 0.895 | 0.267
9 | LSM7 (UniProt Q9UK45) | -0.425 | 0.466 | 0.456
10 | LSM8 (UniProt O95777) | -0.214 | 1.17 | 0.47
11 | LSM12 (UniProt Q3MHD2) | -0.27 | -0.205 | 0.447
12 | LSM14A (UniProt Q8ND56) | 1.03 | 0.62 | -0.111
13 | LSM14B (UniProt Q9BX40) | 0.218 | -0.354 | 0.0171
14 | LSR (UniProt Q86X29) | -0.177 | 0.221 | -0.243
15 | LSS (UniProt P48449) | -0.00616 | 0.724 | 0.345
16 | LTA4H (UniProt P09960) | -0.164 | 0.357 | 0.32
17 | LTBR (UniProt P36941) | 0.85 | -2.06 | -1.66
18 | LTN1 (UniProt O94822) | 0.0334 | 0.0185 | 0.0878

Row | Target | thermal stability z-score (potassium arsenate) | thermal stability z-score (lipoamide; [1]) | thermal stability z-score (lipoamide; arsenate co-treatment: none)
19 | LTV1 (UniProt Q96GA3) | 1.01 | 0.231 | -0.172
20 | LUC7L3 (UniProt O95232) | -0.899 | -1.15 | -0.26
21 | LUC7L (UniProt Q9NQ29) | -1.2 | -0.243 | -0.433
22 | LUZP1 (UniProt Q86V48) | -0.191 | -0.424 | -0.079
23 | LXN (UniProt Q9BS40) | 0.992 | 0.274 | 0.0402
24 | LY6K (UniProt Q17RY6) | 2.42 | -3.06 | -2.7
25 | LYAR (UniProt Q9NX58) | -3.87 | -0.425 | -0.893
26 | LYN (UniProt P07948) | -0.89 | 0.264 | 0.362
27 | LYPD3 (UniProt O95274) | -0.484 | -0.113 | 0.0676
28 | LYPLA1 (UniProt O75608) | -0.862 | 0.624 | -0.159
29 | LYPLA2 (UniProt O95372) | 0.209 | 0.141 | 0.194
30 | LYPLAL1 (UniProt Q5VWZ2) | 0.447 | 0.152 | 0.0691
31 | LYRM4 (UniProt Q9HD34) | -0.348 | -0.401 | 0.0692
32 | LYRM7 (UniProt Q5U5X0) | -0.0732 | 0.507 | 0.358
33 | LYSMD1 (UniProt Q96S90) | 0.777 | 1.23 | 0.621
34 | LYSMD2 (UniProt Q8IV50) | 1.46 | 1.24 | 0.886
35 | LZIC (UniProt Q8WZA0) | 0.906 | 0.558 | 0.781
36 | LZTFL1 (UniProt Q9NQ48) | -0.312 | 0.0385 | 0.0985
